Experimental data from US20100152249A1, “COMPOSITONS AND METHOD FOR TREATMENT OF MOOD AND COGNITIVE IMPAIRMENTS” (BOARD OF TRUSTEES OF THE LELAND STANFORD JUNIOR UNIVERSITY, priority 2008, published 2010).

System: patients with depressive disorder
Experiment: Open-label rosiglitazone added to treatment as usual for 12 weeks in patients with depressive disorder and surrogate IR blood markers
Format: in vivo, human
Procedure: Open-label PPAR agonist, rosiglitazone, titrated to a dose of 8 mg/day, was administered for 12 weeks to patients with depressive disorder receiving treatment as usual (TAU). Subjects were evaluated and surrogate IR blood markers were chosen based on fasting plasma glucose >100 mg/dL or triglyceride (TG) to high density lipoprotein (HDL) ratio of about 3.0 or greater.
Psychiatric Response to Treatment. […] Cohen's d for pre- to post-treatment HDRS-21 was 1.17, with an effect size of r=0.504. For CGI-S scores, Cohen's d and effect size r for CGI-S were 1.27 and 0.54, respectively. […] Even considering the very small sample size, the trajectory of decline in HDRS and CGI was linear.

[1] = 8 mg/day, 12 weeks, 8 completers

In the case of `CN(CCOc1ccc(CC2SC(=O)NC2=O)cc1)c1ccccn1` (stereo not drawn) [rosiglitazone, 5-[4-[2-(N-methyl-N-(2-pyridyl)amino)ethoxy]benzyl]thiazolidine-2,4-dione], the CGI-S post-treatment mean (8 mg/day, 12 weeks, add-on to TAU, 8 completers, baseline mean 4.0, p=0.043) is reported as 2.9, the HDRS-21 post-treatment mean (8 mg/day, 12 weeks, add-on to TAU, 8 completers, baseline mean 19.9, repeated measures ANOVA p=0.019) is reported as 12.1 and the “Cohen's d for CGI-S” value [1] is reported as 1.27. The “Cohen's d for pre- to post-treatment HDRS-21” value [1] was 1.17, the “effect size r for CGI-S” value [1] was 0.54 and the “effect size r for pre- to post-treatment HDRS-21” value [1] was 0.504. For the same compound, the “patients showing ≧50% HDRS-21 score reduction” value [1] was 4 of the 8, the “mean reduction in HDRS-21 scores” value (8 mg/day, 12 weeks, 8 completers, versus baseline) was 39.3% and the “depression severity by Hamilton Depression Rating Scale and clinical assessment (CGI) scores” value (8 patients who completed the 12 week study, moderate effect sizes) was “significant declines”.
